From article PMC11490619, “Discovery of Trypanosoma brucei inhibitors enabled by a unified synthesis of diverse sulfonyl fluorides” (Communications Chemistry, 2024)

How the values were obtained:
[1] = system: T1, Trypanosoma brucei brucei bloodstream forms; assay: microbe, parasite or virus in culture; set-up: Resazurin viability of bloodstream form parasites, fluorescence 560/590 nm, dose-response, initial screen n = 1; settings: initial screen, n = 1, 0.5% DMSO
T1 construct: 427 single marker, bloodstream form
Procedure: Cell viability assays were carried out in 96 well plates with 200 µL of culture per well as described previously. For this study we used bloodstream forms (BSF) of Trypanosoma brucei brucei strain 427 single marker. Axenic cultures of parasites were maintained at the logarithmic phase of cell proliferation (density below 2 ×10^6 parasites/mL) by successive passages in HMI-11 media supplemented with 10% heat inactivated foetal calf serum and 2.5 mg/L geneticin (Ge418) at 37°C under an atmosphere of 5% CO2. Parasites were seeded at 5 ×10^3 cells/mL and incubated with drug for 66 hours. The plate included wells containing the positive control pentamidine (100 nM) and the negative control of 0.5% DMSO. After 66 hours, 10 µL of 1.1 mg/mL Resazurin sodium salt was added in PBS and incubated for a further 6 hours. Plates were then read on a plate reader using excitation/emission 560/590 nm. EC50 values and errors were calculated using a sigmoidal dose response fitting algorithm. The initial screen was performed at n = 1 with follow-up screen of hits n = 4 technical replicates. The set of diverse sulfonyl fluoride probes was screened against Trypanosoma brucei brucei bloodstream forms in 96-well plate format (final concentrations: 0.1–100 μM in 0.5% dimethyl sulfoxide (DMSO); n = 1) (Fig. 3b). […]

[2] = biological target: T2, lyso-phospholipase (D6XM23) (Trypanosoma brucei, UniProt D6XM23); assay: C-1alk click biotin pulldown, LFQ LC-MS/MS; format: biochemical; settings: covalent; labelled compound; parasite lysate; 1.5 uM C-1alk, 1 h, 25 C
T2 construct: gene Tb08.11J15.160; native protein in parasite lysate, about 30 kDa
T2 sequence (D6XM23 entry or part of it): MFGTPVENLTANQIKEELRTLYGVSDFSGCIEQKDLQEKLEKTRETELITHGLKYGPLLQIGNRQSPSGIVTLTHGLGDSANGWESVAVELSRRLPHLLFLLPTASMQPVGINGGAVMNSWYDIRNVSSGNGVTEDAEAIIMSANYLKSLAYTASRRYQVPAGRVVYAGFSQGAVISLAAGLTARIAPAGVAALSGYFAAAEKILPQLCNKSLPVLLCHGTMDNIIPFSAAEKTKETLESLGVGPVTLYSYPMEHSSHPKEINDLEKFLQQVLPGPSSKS

[3] = biological target: T3, prolyl endo-/oligo-peptidase S9 (Q38AG2) (Trypanosoma brucei, UniProt Q38AG2); assay: C-1alk click biotin pulldown, LFQ LC-MS/MS; format: biochemical; settings: covalent; labelled compound; parasite lysate; 1.5 uM C-1alk, 1 h, 25 C
T3 construct: gene Tb10.6k15.2520; native protein in parasite lysate
T3 sequence (Q38AG2 entry or part of it, one chain of several): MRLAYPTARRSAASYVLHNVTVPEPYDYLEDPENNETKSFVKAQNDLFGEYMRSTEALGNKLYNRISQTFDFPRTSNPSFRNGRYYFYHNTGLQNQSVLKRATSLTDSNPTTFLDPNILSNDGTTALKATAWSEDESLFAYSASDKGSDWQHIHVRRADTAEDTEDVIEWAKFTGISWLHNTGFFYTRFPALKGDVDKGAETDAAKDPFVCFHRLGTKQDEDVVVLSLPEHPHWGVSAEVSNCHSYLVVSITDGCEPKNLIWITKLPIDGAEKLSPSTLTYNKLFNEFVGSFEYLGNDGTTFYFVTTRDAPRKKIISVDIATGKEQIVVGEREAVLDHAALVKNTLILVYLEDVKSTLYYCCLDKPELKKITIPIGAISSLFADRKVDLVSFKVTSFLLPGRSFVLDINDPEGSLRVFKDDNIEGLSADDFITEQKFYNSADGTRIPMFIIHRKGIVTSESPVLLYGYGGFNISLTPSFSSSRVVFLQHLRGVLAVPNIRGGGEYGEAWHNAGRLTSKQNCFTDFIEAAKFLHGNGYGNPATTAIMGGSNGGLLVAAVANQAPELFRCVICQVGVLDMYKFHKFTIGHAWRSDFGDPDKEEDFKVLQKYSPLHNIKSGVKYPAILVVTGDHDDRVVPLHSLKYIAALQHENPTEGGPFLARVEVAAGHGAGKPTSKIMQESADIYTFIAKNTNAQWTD

[4] = biological target: T4, T. brucei glycerol kinase (Q38DF0) (Trypanosoma brucei, UniProt Q38DF0); assay: modified-peptide LC-MS/MS after click to cleavable biotin-azide; format: binding; settings: covalent; labelled compound; parasite lysate; site S137, T138 or Y139
T4 construct: gene Tb09.211.3570; native protein in parasite lysate
T4 sequence (Q38DF0 entry or part of it): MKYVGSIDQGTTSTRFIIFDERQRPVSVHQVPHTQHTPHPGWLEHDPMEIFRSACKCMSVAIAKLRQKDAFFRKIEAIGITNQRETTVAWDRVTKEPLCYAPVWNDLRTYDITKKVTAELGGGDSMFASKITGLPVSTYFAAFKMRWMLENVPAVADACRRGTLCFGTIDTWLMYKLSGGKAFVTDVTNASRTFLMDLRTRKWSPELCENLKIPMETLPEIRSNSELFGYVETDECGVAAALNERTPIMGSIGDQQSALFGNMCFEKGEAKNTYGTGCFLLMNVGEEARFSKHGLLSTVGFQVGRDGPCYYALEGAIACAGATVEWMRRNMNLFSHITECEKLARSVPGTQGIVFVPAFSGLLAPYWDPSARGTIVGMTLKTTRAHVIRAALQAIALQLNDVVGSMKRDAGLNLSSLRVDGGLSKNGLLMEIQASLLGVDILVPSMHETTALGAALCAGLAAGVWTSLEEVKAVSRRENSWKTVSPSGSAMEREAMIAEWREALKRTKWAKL

| SMILES | EC50 [1] | C-1alk click biotin pulldown, LFQ LC-MS/MS [2] | C-1alk click biotin pulldown, LFQ LC-MS/MS [3] | modified-peptide LC-MS/MS after click to cleavable biotin-azide [4] |
| --- | --- | --- | --- | --- |
| CC(C)(C)OC(=O)N1CCCC1c1ccc(S(=O)(=O)F)cn1 (stereo not shown) [C-1] | 330 nM |  |  |  |
| C#CCOC(=O)N1CCCC1c1ccc(S(=O)(=O)F)cn1 (stereo not shown) [C-1alk] |  | Lyso-phospholipase emerged as the sole common hit labelled by both C-1alk and FP-biotin | prolyl endo-/oligo-peptidase S9 (Q38AG2), which had been previously enriched with our C-1alk probe | identify peptides matching the expected mass shift for T. brucei glycerol kinase (Q38DF0) |
